Laboratory results published in patent publication US9951065B2 (Gilead Sciences, Inc., priority 2015, dated 2018).

biological target: T1, IDO1 (Homo sapiens, UniProt P14902); assay: Cell-based (HeLa) assay for measurement of IDO1 inhibition (kynurenine levels in supernatant after IFNγ induction); conditions: HeLa cells, IFNγ-induced IDO1, kynurenine in supernatant after 48 hour incubation; geometric mean of a minimum of four determinations
T1 construct: HeLa cells were treated with a test compound in the presence of IFNγ, which induces IDO1 expression; host or cells: H1-HeLa cells, IDO1 induced with IFNγ
T1 sequence (P14902 whole entry): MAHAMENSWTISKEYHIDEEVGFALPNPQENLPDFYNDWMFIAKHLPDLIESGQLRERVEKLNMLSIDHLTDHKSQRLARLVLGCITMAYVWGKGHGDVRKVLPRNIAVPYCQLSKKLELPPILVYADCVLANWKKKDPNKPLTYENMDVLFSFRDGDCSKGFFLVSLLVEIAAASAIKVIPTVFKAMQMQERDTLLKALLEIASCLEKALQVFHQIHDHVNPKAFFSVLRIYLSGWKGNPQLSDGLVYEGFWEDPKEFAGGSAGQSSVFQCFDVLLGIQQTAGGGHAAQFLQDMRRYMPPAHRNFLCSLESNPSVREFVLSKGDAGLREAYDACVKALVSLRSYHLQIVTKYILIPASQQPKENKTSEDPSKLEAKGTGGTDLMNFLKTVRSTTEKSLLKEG
In short: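 IDO1 activity is read as kynurenine released into the medium, detected with Ehrlich's reagent (p-dimethylaminobenzaldehyde) at 480 nm after TCA treatment. HeLa cells were exposed 48 h to compounds in 0.5% DMSO alongside IFNγ induction. Values normalized to no-IFNγ and IFNγ controls; four-parameter EC50 given as geometric mean of ≥4 determinations.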

| EC50 | Structure (SMILES) |
| --- | --- |
| 3.03 µM | O/N=C(\Nc1ccc(Cl)c2ccccc12)c1ccnc2nc[nH]c12 [Example 105, N-(4-Chloronaphthalen-1-yl)-N′-hydroxy-1H-imidazo[4,5-b]pyridine-7-carboximidamide] |
| 0.916 µM | O/N=C(\Nc1ccc(Br)cc1)c1ccnc2nc[nH]c12 [Example 88, N-(4-Bromophenyl)-N′-hydroxy-1H-imidazo[4,5-b]pyridine-7-carboximidamide] |
| 2.23 µM | CC(C)NCc1nc2c(F)ccc(/C(=N/O)Nc3ccc(F)c(Cl)c3)c2[nH]1 [Example 289, N-(3-chloro-4-fluorophenyl)-4-fluoro-N′-hydroxy-2-((isopropylamino)methyl)-1H-benzo[d]imidazole-7-carboximidamide] |
| 0.576 µM | O/N=C(\Nc1ccc(F)c(Cl)c1)c1ccnc2nc(CCN3CC4CCC(C4)C3)[nH]c12 [Example 277, 2-(2-(3-azabicyclo[3.2.1]octan-3-yl)ethyl)-N-(3-chloro-4-fluorophenyl)-N′-hydroxy-1H-imidazo[4,5-b]pyridine-7-carboximidamide] |
| 0.923 µM | O/N=C(\Nc1ccc2c(c1)OC(F)(F)O2)c1ccnc2nc[nH]c12 [Example 74, N-(2,2-Difluorobenzo[d][1,3]dioxol-5-yl)-N′-hydroxy-1H-imidazo[4,5-b]pyridine-7-carboximidamide] |
| 1.34 µM | CN1CCC(Nc2nc3nccc(/C(=N/O)Nc4ccc(F)c(Cl)c4)c3[nH]2)C1 (stereo not drawn) [Example 203, N-(3-Chloro-4-fluorophenyl)-N′-hydroxy-2-[(1-methylpyrrolidin-3-yl)amino]-1H-imidazo[4,5-b]pyridine-7-carboximidamide] |
| 0.514 µM | CC(CN1CCOCC1)Nc1nc2c(F)c(F)cc(/C(=N/O)Nc3ccc(F)c(Cl)c3)c2[nH]1 (stereo not drawn) [Example 37, N-(3-Chloro-4-fluorophenyl)-4,5-difluoro-N′-hydroxy-2-((1-morpholinopropan-2-yl)amino)-1H-benzo[d]imidazole-7-carboximidamide] |
| 2.15 µM | CS(=O)(=O)CCNc1nc2c(F)c(F)cc(/C(=N/O)Nc3ccc(F)c(Cl)c3)c2[nH]1 [Example 35, N-(3-Chloro-4-fluorophenyl)-4,5-difluoro-N′-hydroxy-2-((2-(methylsulfonyl)ethyl)amino)-1H-benzo[d]imidazole-7-carboximidamide] |
| 2.08 µM | O/N=C(\Nc1ccc(F)c(Cl)c1)c1ccnc2nc(CNCCc3ccccn3)[nH]c12 [Example 125, N-(3-Chloro-4-fluorophenyl)-N′-hydroxy-2-(((2-(pyridin-2-yl)ethyl)amino)methyl)-1H-imidazo[4,5-b]pyridine-7-carboximidamide] |
| 0.844 µM | O/N=C(\Nc1ccc(F)c(Cl)c1)c1ccnc2nc(CCN3CCCCCC3)[nH]c12 [Example 258, 2-(2-(azepan-1-yl)ethyl)-N-(3-chloro-4-fluorophenyl)-N′-hydroxy-1H-imidazo[4,5-b]pyridine-7-carboximidamide] |
| 1.88 µM | COCCCN(C)Cc1nc2nccc(/C(=N/O)Nc3ccc(F)c(Cl)c3)c2[nH]1 [Example 122, N-(3-Chloro-4-fluorophenyl)-N′-hydroxy-2-(((3-methoxypropyl)(methyl)amino)methyl)-1H-imidazo[4,5-b]pyridine-7-carboximidamide] |
| 0.504 µM | COCCN(C)CCc1nc2nccc(/C(=N/O)Nc3ccc(F)c(Cl)c3)c2[nH]1 [Example 194, N-(3-Chloro-4-fluorophenyl)-N′-hydroxy-2-(2-((2-methoxyethyl)(methyl)amino)ethyl)-1H-imidazo[4,5-b]pyridine-7-carboximidamide] |
| 2.15 µM | O/N=C(\Nc1ccc(F)c(Cl)c1)c1ccnc2nc(CNC3CC3)[nH]c12 [Example 119, N-(3-Chloro-4-fluorophenyl)-2-((cyclopropylamino)methyl)-N′-hydroxy-1H-imidazo[4,5-b]pyridine-7-carboximidamide] |
| 0.926 µM | O/N=C(\Nc1ccc(F)c(Cl)c1)c1ccc(C(F)(F)F)c2nc[nH]c12 [Example 7, N-(3-Chloro-4-fluorophenyl)-N′-hydroxy-4-(trifluoromethyl)-1H-benzo[d]imidazole-7-carboximidamide] |
| 1.07 µM | NCc1nc2c(/C(=N/O)Nc3ccc(F)c(Cl)c3)cc(F)c(F)c2[nH]1 [Example 47, 2-(Aminomethyl)-N-(3-chloro-4-fluorophenyl)-4,5-difluoro-N′-hydroxy-1H-benzo[d]imidazole-7-carboximidamide] |

same assay, conditions: HeLa cells, IFNγ-induced IDO1, kynurenine in supernatant, 48 hour incubation; geometric mean of a minimum of four determinations

| EC50 | Structure (SMILES) |
| --- | --- |
| 0.332 µM | CN(CCNc1nc2c(F)c(F)cc(/C(=N/O)Nc3ccc(F)c(Cl)c3)c2[nH]1)CC1CCOCC1 [Example 394, N-(3-chloro-4-fluorophenyl)-4,5-difluoro-N′-hydroxy-2-((2-(methyl((tetrahydro-2H-pyran-4-yl)methyl)amino)ethyl)amino)-1H-benzo[d]imidazole-7-carboximidamide] |
| 5.66 µM | NS(=O)(=O)CCNc1nc2nccc(/C(=N/O)Nc3ccc(F)c(Cl)c3)c2[nH]1 [Example 492, N-(3-chloro-4-fluorophenyl)-N′-hydroxy-2-((2-sulfamoylethyl)amino)-1H-imidazo[4,5-b]pyridine-7-carboximidamide] |
| 1.32 µM | CCC(CC)CN(C)CCNc1nc2c(F)c(F)cc(/C(=N/O)Nc3ccc(F)c(Cl)c3)c2[nH]1 [Example 397, N-(3-chloro-4-fluorophenyl)-2-((2-((2-ethylbutyl)(methyl)amino)ethyl)amino)-4,5-difluoro-N′-hydroxy-1H-benzo[d]imidazole-7-carboximidamide] |
| 0.957 µM | O/N=C(\Nc1ccc(F)c(Cl)c1)c1cc(F)c(F)c2nc(N[C@@H]3CCCN(C4COC4)C3)[nH]c12 [Example 465, (R)-N-(3-chloro-4-fluorophenyl)-4,5-difluoro-N′-hydroxy-2-((1-(oxetan-3-yl)piperidin-3-yl)amino)-1H-benzo[d]imidazole-7-carboximidamide] |
| 5 µM | O/N=C(\Nc1ccc(F)c(Cl)c1)c1ccnc2nc(CC3CCCN3)[nH]c12 (stereo not drawn) [Example 329, N-(3-chloro-4-fluorophenyl)-N′-hydroxy-2-(pyrrolidin-2-ylmethyl)-1H-imidazo[4,5-b]pyridine-7-carboximidamide] |
| 2.4 µM | O=S1(=O)CCN(CCNc2nc3c(F)c(F)cc(/C(=N/O)Nc4ccc(F)c(Cl)c4)c3[nH]2)CC1 [Example 374, N-(3-chloro-4-fluorophenyl)-2-((2-(1,1-dioxidothiomorpholino)ethyl)amino)-4,5-difluoro-N′-hydroxy-1H-benzo[d]imidazole-7-carboximidamide] |
| 0.253 µM | CN(C)CCNc1nc2c(F)c(F)cc(/C(=N/O)Nc3ccc(F)c(Br)c3)c2[nH]1 [Example 432, N-(3-bromo-4-fluorophenyl)-2-((2-(dimethylamino)ethyl)amino)-4,5-difluoro-N′-hydroxy-1H-benzo[d]imidazole-7-carboximidamide] |
| > 10 µM | CN(C)C1(CNc2nc3c(F)c(F)cc(/C(=N/O)Nc4ccc(F)c(Cl)c4)c3[nH]2)CCC1 [Example 441, N-(3-chloro-4-fluorophenyl)-2-(((1-(dimethylamino)cyclobutyl)methyl)amino)-4,5-difluoro-N′-hydroxy-1H-benzo[d]imidazole-7-carboximidamide] |
| 0.568 µM | O/N=C(\Nc1ccc(F)c(Cl)c1)c1cc(F)c(F)c2nc(NCCN3CC[C@H](O)C3)[nH]c12 [Example 452, (S)—N-(3-chloro-4-fluorophenyl)-4,5-difluoro-N′-hydroxy-2-((2-(3-hydroxypyrrolidin-1-yl)ethyl)amino)-1H-benzo[d]imidazole-7-carboximidamide] |
